Molecular target: human GPR17 short isoform (Homo sapiens (Human), UniProt Q13304)
Test: GPR17 cAMP assay (hGPR17 cAMP, antagonist mode against EC80 of MDL29,951)
Type: cell-based
Settings: CHO-K1 cells stably expressing human GPR17 short isoform; EC80 of agonist MDL29,951; forskolin 15 μM
How it was run: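 cAMP was read by competitive TR-FRET after a 30 min room-temperature stimulation: antagonists plus EC80 MDL29,951 and 0.5 mM IBMX, followed 5 min later by 15 μM forskolin. Cells were CHO-K1 with stable human GPR17 short isoform in HBSS/HEPES/BSA, pH 7.4; percent activity versus reference antagonist fitted sigmoidally.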

human GPR17 short isoform, sequence (Q13304 29-367): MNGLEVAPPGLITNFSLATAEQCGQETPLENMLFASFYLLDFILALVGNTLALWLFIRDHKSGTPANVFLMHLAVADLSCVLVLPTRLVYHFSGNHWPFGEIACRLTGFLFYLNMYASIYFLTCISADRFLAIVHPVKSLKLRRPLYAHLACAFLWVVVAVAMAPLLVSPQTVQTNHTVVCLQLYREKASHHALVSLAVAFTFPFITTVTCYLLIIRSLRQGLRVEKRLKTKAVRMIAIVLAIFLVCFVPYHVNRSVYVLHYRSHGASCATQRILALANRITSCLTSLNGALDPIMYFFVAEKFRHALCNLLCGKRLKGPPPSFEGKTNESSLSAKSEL

Structure (SMILES)	IC50 [nM]
COc1nc(NS(=O)(=O)c2c[nH]c3cc(Br)ccc23)ncc1OC(F)F [Example 189, 6-bromo-N-[5-(difluoromethoxy)-4-methoxy-pyrimidin-2-yl]-1H-indole-3-sulfonamide]	167
COc1nc(NS(=O)(=O)c2c[nH]c3cc(C(F)(F)F)ccc23)ncc1CC(F)F [Example 190, N-[5-(2,2-difluoroethyl)-4-methoxy-pyrimidin-2-yl]-6-(trifluoromethyl)-1H-indole-3-sulfonamide]	106
COc1nc(NS(=O)(=O)c2c[nH]c3cc(C(F)F)ccc23)ncc1CC(F)F [Example 195, N-[5-(2,2-difluoroethyl)-4-methoxy-pyrimidin-2-yl]-6-(difluoromethyl)-1H-indole-3-sulfonamide]	54
COc1nc(NS(=O)(=O)c2c[nH]c3cc(CC#N)ccc23)ncc1CC(F)F [Example 197, 6-(cyanomethyl)-N-[5-(2,2-difluoroethyl)-4-methoxy-pyrimidin-2-yl]-1H-indole-3-sulfonamide]	981
COc1nc(NS(=O)(=O)c2c[nH]c3nc(Br)ccc23)ncc1CC(F)F [Example 200, 6-bromo-N-[5-(2,2-difluoroethyl)-4-methoxy-pyrimidin-2-yl]-1H-pyrrolo[2,3-b]pyridine-3-sulfonamide]	66
COc1nc(NS(=O)(=O)c2c[nH]c3nc(Cl)ccc23)ncc1CC(F)F [Example 203, 6-chloro-N-[5-(2,2-difluoroethyl)-4-methoxy-pyrimidin-2-yl]-1H-pyrrolo[2,3-b]pyridine-3-sulfonamide]	127
COc1nc(NS(=O)(=O)c2c[nH]c3nc(Cl)ccc23)nc(OC)c1OC(F)F [Example 205, 6-chloro-N-[5-(difluoromethoxy)-4,6-dimethoxy-pyrimidin-2-yl]-1H-pyrrolo[2,3-b]pyridine-3-sulfonamide]	49
COc1nc(NS(=O)(=O)c2c[nH]c3nc(Cl)ccc23)nc(OC)c1OCC(F)F [Example 206, 6-chloro-N-[5-(2,2-difluoroethoxy)-4,6-dimethoxy-pyrimidin-2-yl]-1H-pyrrolo[2,3-b]pyridine-3-sulfonamide]	57
COc1nc(NS(=O)(=O)c2c[nH]c3c(C(F)F)c(Cl)ccc23)ncc1CCC(F)F [Example 209, 6-chloro-7-(difluoromethyl)-N-[5-(3,3-difluoropropyl)-4-methoxy-pyrimidin-2-yl]-1H-indole-3-sulfonamide]	68
COc1nc(NS(=O)(=O)c2c[nH]c3c(OC4CC4)c(Cl)ccc23)ncc1CCC(F)F [Example 212, 6-chloro-7-(cyclopropoxy)-N-[5-(3,3-difluoropropyl)-4-methoxy-pyrimidin-2-yl]-1H-indole-3-sulfonamide]	45
COc1nc(NS(=O)(=O)c2c[nH]c3c(C(F)F)c(Cl)ccc23)ncc1CC(F)F [Example 214, 6-chloro-N-[5-(2,2-difluoroethyl)-4-methoxy-pyrimidin-2-yl]-7-(difluoromethyl)-1H-indole-3-sulfonamide]	38
COc1nc(NS(=O)(=O)c2c[nH]c3c(F)c(Cl)ccc23)ncc1CCC#N [Example 216, 6-chloro-N-[5-(2-cyanoethyl)-4-methoxy-pyrimidin-2-yl]-7-fluoro-1H-indole-3-sulfonamide]	43
COc1nc(NS(=O)(=O)c2c[nH]c3nc(Cl)ccc23)nc(OC)c1OCCF [Example 221, 6-chloro-N-[5-(2-fluoroethoxy)-4,6-dimethoxy-pyrimidin-2-yl]-1H-pyrrolo[2,3-b]pyridine-3-sulfonamide]	65
COc1nc(NS(=O)(=O)c2c[nH]c3c2ccc2cccnc23)ncc1CC(F)F [Example 222, N-[5-(2,2-difluoroethyl)-4-methoxy-pyrimidin-2-yl]-1H-pyrrolo[3,2-h]quinoline-3-sulfonamide]	291
COc1nc(NS(=O)(=O)c2c[nH]c3c(C#N)c(Cl)ccc23)ncc1CC(F)F [Example 223, 6-chloro-7-cyano-N-[5-(2,2-difluoroethyl)-4-methoxy-pyrimidin-2-yl]-1H-indole-3-sulfonamide]	40

These reach a lower IC50. Values come first.

IC50 [nM]	Structure (SMILES)
36	COc1nc(NS(=O)(=O)c2c[nH]c3c(OCF)c(Cl)ccc23)ncc1CC(F)F [Example 198, 6-chloro-N-[5-(2,2-difluoroethyl)-4-methoxy-pyrimidin-2-yl]-7-(fluoromethoxy)-1H-indole-3-sulfonamide]
34	COc1nc(NS(=O)(=O)c2c[nH]c3c(F)c(Br)ccc23)ncc1OCCF [Example 213, 6-bromo-7-fluoro-N-[5-(2-fluoroethoxy)-4-methoxy-pyrimidin-2-yl]-1h-indole-3-sulfonamide]
33	COc1nc(NS(=O)(=O)c2c[nH]c3c(F)c(Br)ccc23)ncc1CC(F)F [Example 191, 6-bromo-N-[5-(2,2-difluoroethyl)-4-methoxy-pyrimidin-2-yl]-7-fluoro-1H-indole-3-sulfonamide]
30	COc1nc(NS(=O)(=O)c2c[nH]c3nc(Br)ccc23)ncc1CCC(F)F [Example 201, 6-bromo-N-[5-(3,3-difluoropropyl)-4-methoxy-pyrimidin-2-yl]-1H-pyrrolo[2,3-b]pyridine-3-sulfonamide]
30	COc1nc(NS(=O)(=O)c2c[nH]c3c(Cl)c(Cl)ccc23)ncc1CCC(F)F [Example 211, 6,7-dichloro-N-[5-(3,3-difluoropropyl)-4-methoxy-pyrimidin-2-yl]-1H-indole-3-sulfonamide]
29	COc1nc(NS(=O)(=O)c2c[nH]c3nc(Cl)ccc23)ncc1CCC(F)F [Example 204, 6-chloro-N-[5-(3,3-difluoropropyl)-4-methoxy-pyrimidin-2-yl]-1H-pyrrolo[2,3-b]pyridine-3-sulfonamide]
28	COc1nc(NS(=O)(=O)c2c[nH]c3c(OC(F)F)c(Cl)ccc23)ncc1CC(F)F [Example 188, 6-chloro-N-[5-(2,2-difluoroethyl)-4-methoxy-pyrimidin-2-yl]-7-(difluoromethoxy)-1H-indole-3-sulfonamide]
28	COc1nc(NS(=O)(=O)c2c[nH]c3nc(Br)ccc23)nc(OC)c1OCC(F)F [Example 202, 6-bromo-N-[5-(2,2-difluoroethoxy)-4,6-dimethoxy-pyrimidin-2-yl]-1H-pyrrolo[2,3-b]pyridine-3-sulfonamide]
28	COc1nc(NS(=O)(=O)c2c[nH]c3c(F)c(Cl)ccc23)ncc1OC(F)(F)CF [Example 215, 6-chloro-7-fluoro-N-[4-methoxy-5-(1,1,2-trifluoroethoxy)pyrimidin-2-yl]-1H-indole-3-sulfonamide]
27	COc1nc(NS(=O)(=O)c2c[nH]c3nc(Cl)ccc23)ncc1OC(F)(F)CF [Example 220, 6-chloro-N-[4-methoxy-5-(1,1,2-trifluoroethoxy)pyrimidin-2-yl]-1H-pyrrolo[2,3-b]pyridine-3-sulfonamide]
25	COc1nc(NS(=O)(=O)c2c[nH]c3nc(C(F)F)ccc23)nc(OC)c1CC(F)F [Example 194, N-[5-(2,2-difluoroethyl)-4,6-dimethoxy-pyrimidin-2-yl]-6-(difluoromethyl)-1H-pyrrolo[2,3-b]pyridine-3-sulfonamide]
25	COc1nc(NS(=O)(=O)c2c[nH]c3c(F)c(Cl)ccc23)nc(OC)c1OCC(F)F [Example 208, 6-chloro-N-[5-(2,2-difluoroethoxy)-4,6-dimethoxy-pyrimidin-2-yl]-7-fluoro-1H-indole-3-sulfonamide]
25	COc1nc(NS(=O)(=O)c2c[nH]c3c(C#N)c(Cl)ccc23)nc(OC)c1OC(F)F [Example 224, 6-chloro-7-cyano-N-[5-(difluoromethoxy)-4,6-dimethoxy-pyrimidin-2-yl]-1H-indole-3-sulfonamide]
20	COc1nc(NS(=O)(=O)c2c[nH]c3c(C)c(Cl)ccc23)ncc1CC(F)F [Example 192, 6-chloro-N-[5-(2,2-difluoroethyl)-4-methoxy-pyrimidin-2-yl]-7-methyl-1H-indole-3-sulfonamide]
18	COc1nc(NS(=O)(=O)c2c[nH]c3c(Cl)c(Cl)ccc23)ncc1CC(F)F [Example 210, 6,7-dichloro-N-[5-(2,2-difluoroethyl)-4-methoxy-pyrimidin-2-yl]-1H-indole-3-sulfonamide]
18	COc1nc(NS(=O)(=O)c2c[nH]c3c(F)c(Cl)ccc23)nc(OC)c1OCC#N [Example 219, 6-chloro-N-[5-(cyanomethoxy)-4,6-dimethoxy-pyrimidin-2-yl]-7-fluoro-1H-indole-3-sulfonamide]
17	COc1nc(NS(=O)(=O)c2c[nH]c3c(F)c(Cl)ccc23)nc(OC)c1CC(F)F [Example 217, 6-chloro-N-[5-(2,2-difluoroethyl)-4,6-dimethoxy-pyrimidin-2-yl]-7-fluoro-1H-indole-3-sulfonamide]
16	COc1nc(NS(=O)(=O)c2c[nH]c3c(OC)c(Br)ccc23)ncc1CC(F)F [Example 196, 6-bromo-N-[5-(2,2-difluoroethyl)-4-methoxy-pyrimidin-2-yl]-7-methoxy-1H-indole-3-sulfonamide]
14	COc1nc(NS(=O)(=O)c2c[nH]c3c(F)c(Cl)ccc23)ncc1CCC(F)F [Example 207, 6-chloro-N-[5-(3,3-difluoropropyl)-4-methoxy-pyrimidin-2-yl]-7-fluoro-1H-indole-3-sulfonamide]
14	COc1nc(NS(=O)(=O)c2c[nH]c3c(F)c(Cl)ccc23)nc(OC)c1CCC#N [Example 218, 6-chloro-N-[5-(2-cyanoethyl)-4,6-dimethoxy-pyrimidin-2-yl]-7-fluoro-1H-indole-3-sulfonamide]
8	COc1nc(NS(=O)(=O)c2c[nH]c3c(SC(F)F)c(Cl)ccc23)ncc1CC(F)F [Example 199, 6-chloro-N-[5-(2,2-difluoroethyl)-4-methoxy-pyrimidin-2-yl]-7-(difluoromethylsulfanyl)-1H-indole-3-sulfonamide]

Reference: US20240025883A1, “PYRIMIDIN-2-YL SULFONAMIDE DERIVATIVES” (Hoffmann-La Roche Inc., priority 2021, published 2024)
